The text below walks through data of patent US20120010229A1, “THERAPEUTIC REGIMENS FOR HEDGEHOG-ASSOCIATED CANCERS” (priority 2010, published 2012).

Data set [1] has as its system L3.6pl P-lucky liver metastasis. Kind of data set: L3.6pl liver metastasis model, Study #1. The data set is classed as in vivo. To be noted: for H&E staining of liver, tumor cells or metastasis: day 21. Here is the method:
Cells: L3.6pl is a pancreatic cancer cell line that has been tagged with the bioluminescence marker, luciferase, and is known to form metastasis in the liver (pl—pancreas to liver). Cells were cultured in RPMI+10% FBS and harvested on the day of implant. A single cell suspension was prepared in PBS at a concentration of 10 million cells per 1 ml of PBS. These cells were kept at 4° C. until implantation.
Model Procedure: Animals were anesthetized and prepared for surgery. The animal's spleen was exposed and 100 μl (1 million cells) of the L3.6pl single cell suspension was injected directly in the spleen towards the splenic vein (intra splenic injection). Once the injection was complete, the splenic artery and splenic vein were ligated, the spleen was excised, and the animals' wounds were closed. Post-op care and analgesia was given for 4 consecutive days and animals were monitored for recovery.
Prior to the procedure listed above 40 animals were separated into 4 groups consisting of 10 animals each.
Animals in group 2 (Pre-Treatment), received IPI-926 every-other-day for 14 days, prior to the intra splenic injection procedure, continuing until the study end.
Animals in group 3 (Day-of-Treatment), received IPI-926 every-other-day beginning on the day of the intra splenic injection procedure, continuing until the study end.
Animals in group 4 (Post-Treatment), received IPI-926 every-other-day beginning 7 days after the intra splenic injection procedure, continuing until the study end.
Results Procedure: Animals were injected with 10 ml/kg of luciferin concentrated at […] via I.P. injection. This luciferin binds to the L3.6pl P-Lucky cells injected on day 0. Utilizing Calipers Xenogen© machine, this cell-luciferin association emits bioluminescence that can be read and quantified (total flux).
Results: The graphs in FIGS. 10A-10B represent the quantification, normalized on each day to the average of vehicle treated animals. This normalization was done using the formula: (1/(average flux of vehicle animals/average flux of group X (group being compared))).

The subject of the next data set is Ptc^C/C medulloblastoma. Kind of data set: Ptc^C/C mouse medulloblastoma model: survival, symptoms, MRI tumor volume. Type of data set: in vivo. The text has this:
Transgenic mice were maintained in accordance with the NIH Guide for the Care and Use of Experimental Animals with approval from our Institutional Animal Care and Use Committee. Conditional Patched1 null mice (Ptc^C/C) were generated on a mixed background by breeding mice homozygous for the floxed Ptch1 allele (Adolphe et al., (2006) Cancer Res 66: 2081-2088) to Math1-Cre mice, as previously described (Yang et al. (2008) Cancer Cell 14: 135-145). Mice were genotyped by PCR using genomic DNA using the following primers:
Animal experiments were performed in accordance with the NIH Guide for the Care and Use of Experimental Animals with approval from our Institutional Animal Care and Use Committee. 100% penetrance of medulloblastoma in the Ptc^C/C mice was observed, with all mice displaying symptoms of tumor formation by the time of weaning. Ptc^C/C mice (age ranging from 21-36 days) were randomized to receive either IPI-926 (Infinity Pharmaceuticals) or vehicle control (5% (2-Hydroxylpropyl)-B-Cyclodextrin (HPBCD), Sigma Aldrich) administered via intraperitoneal (IP) injection.
Mice were euthanized using CO2 inhalation, brains were removed and tissue snap frozen for RNA studies or fixed in 10% buffered formalin and processed for histopathological examination. Formalin-fixed tissues were paraffin embedded, cut into 4 um sections and stained with Haematoxylin and Eosin using standard methods.
Magnetic resonance imaging (MRI) was performed using a 3 Tesla MRI system (Philips Achieva, Philips Healthcare, Andover, Mass.) and a custom mouse head coil. Serial MR scans were performed using a 35 minute coronal high-resolution T2-weighted sequence (TE=110 ms, TR=2000 ms, bandwidth=212, 2 NEX or signal averages, a matrix of 256×256 pixels in-plane, slice thickness of 320 microns and an interslice gap of 160 microns). Mice were scanned under halothane anesthesia at enrollment, after 3 weeks of treatment, and after 6 weeks of treatment. Ctx:Cy5.5 bioconjugate (Tumor Paint) was given by intravenous tail vein injection one day prior to animal sacrifice. Biophotonic images were obtained using the Xenogen Spectrum imaging system (Caliper Life Sciences) as previously described (Veiseh et al. (2007) Cancer 67: 6882-6888).
DICOM images were exported from the MRI scanner to a web-based repository (BioScribe) and then imported into ITK-SNAP (version 2.0, available on the world wide web at itksnap.org). Images were first windowed to accentuate tumor/brain contrast, easily observed on the T2-weighted scans. […] Effacement of the fourth ventricle was accompanied by lateral and third ventriculomegaly and transependymal CSF flow. Tumor and enlarged cerebellum was seen to herniate into the internal auditory canals (IAC) bilaterally. After each imaging time-point, using the manual tracing tool, tumor tissue (including the IAC components) was painted in three planes excluding frank cerebrospinal fluid or cystic regions. The resultant segmentation file was saved for later use. Three-dimensional surface-rendered reconstructions were then performed and saved in two standard projections for each tumor analyzed, with the aim of delineating a consistent view of the tumor for comparison between pre- and post-treatment scans and between treatment groups. Automated pixel counting multiplied by image pixel dimensions yielded volumetric measures for each segmentation analysis dataset. In addition to quantitative analysis, pre and post-treatment scans were compared for evaluation of secondary changes such as hydrocephalus, prominent extra-axial spaces, cystic change/necrosis in treated tumor and any evidence of hemorrhage.
Studies were designed to detect differences in event rates that approximately corresponded to a doubling of median improvement in survival of (3 weeks) with 90% power based on simulated power experiments. […]

The next data set in a line: Tolerability in mice. Type of data set: in vivo. To be noted: incl. daily 20 mg/kg for greater than 60 days and once-weekly 70 mg/kg. The source says: Studies that are currently underway in pediatric patients and those being planned must consider the permanent changes on cartilage and bone formation observed in young mice as a result of treatment with the HhAntag Smoothened inhibitor (Kimura et al., (2008) Cancer Cell 13: 249-260). The extent to which this on-target toxicity is species specific remains unknown at this time.

The conditions of data set [2]: in vivo, cited from earlier work.

With `CC1=C2C[C@H]3[C@@H](CC[C@@H]4C[C@H](NS(C)(=O)=O)CC[C@@]43C)[C@@H]2CC[C@@]2(C1)O[C@@H]1C[C@H](C)CN[C@H]1[C@H]2C` [IPI-926], the “reduction in flux (bioluminescence) below vehicle” value in data set [1] (IPI-926 every-other-day from 14 days prior to implant) is listed as 20-25 fold. Further, the “take or growth of metastasis within the liver” value in data set [1] (day of implant treatment (Day 0)) and in data set [1] (post implant treatment (Day 7)) was “no detectable effect” each time. The “H&E staining of liver, tumor cells or metastasis” value in data set [1] (day of treated group) was “visible metastasis and tumors cells present”; in data set [1] (post treated group), “visible metastasis and tumors cells present”; in data set [1] (pre-treatment animal), “no detectable tumor cells or metastasis”. Moreover, the “survival rate vs vehicle” value in data set [1] (day of treatment group) and in data set [1] (post treatment group) was “survival rates similar to vehicle treated animals” each time. For the same compound, the “overall survival rate vs vehicle” value in data set [1] (treatment from 14 days prior to implant) is on record as “doubles the overall survival rate”. Besides, in the data set with Ptc^C/C medulloblastoma (20 mg/kg/day, after maximal size reduction at 3 weeks), the “fraction of mice with rebound in tumor growth by 6 weeks (MRI)” value is recorded as “approximately half”. For the same compound, the “tumor volume by MRI” value in the data set with Ptc^C/C medulloblastoma (after three weeks of daily administration) is given as “substantial tumor regression”. Besides, the “average time to death after stopping treatment” value with Ptc^C/C medulloblastoma (drug withdrawn after six weeks of daily 20 mg/kg) is no more than 10 days. In addition, in the data set with Ptc^C/C medulloblastoma (pilot study, daily IP 20 mg/kg/dose, 19 days of treatment), the “clinical symptoms of medulloblastoma” value is recorded as “full resolution of clinical symptoms”. Moreover, the “mice still alive six weeks after starting twice-a-week therapy” value in the data set on Ptc^C/C medulloblastoma (six weeks daily then maintenance 20 mg/kg twice per week) is 77%. Moreover, in the data set with Ptc^C/C medulloblastoma (six weeks of daily IPI-926 20 mg/kg IP, vehicle 0%), the survival was found to be 100%. Besides, the tolerability entry in “Tolerability in mice” is “well tolerated”. Moreover, in data set [2] (po), the oral bioavailability result is “orally bioavailable”. Moreover, the duration of action entry in data set [2] is on record as “long duration of action”. Moreover, the plasma half-life entry in data set [2] is on record as “long plasma half-life”.
